# Laboratory results taken from patent publication US4315009A, “Antisecretory guanidine derivatives and pharmaceutical compositions containing them” (Imperial Chemical Industries Limited, priority 1978, dated 1982).
# Test: overt toxicity in mice after intraperitoneal dosing
# Type: in vivo
# Conditions: intraperitoneally, 50 mg./kg.
smiles,measurement,value
"C/N=C(\NC#N)Nc1cccc(-c2csc(N=C(N)N)n2)c1 [Example 2, 2-guanidino-4-[3-(2-cyano-3-methylguanidino)phenyl]thiazole]",overt toxicity,no overt toxicity
